Experimental findings from patent EP0360437A1, “Biocidal polylamine-amides” (priority 1988, dated 1990) are described below.

Structures are written as SMILES. Like-named read-outs stand apart in the source and are kept apart here.

This assay has as its system complex formed by the invertebrate L-quisqualate sub-type L-glutamate receptor and its ion channel. Set-up: species or system Schistocerca gregaria. As to the method: The compounds were assayed for biological activity on the isolated, retractor unguis nerve-muscle preparation of the locust Schistocerca gregaria (Usherwood, P.N.R and Machili, P. (1968) J. Exp. Biol., 49: 341.). Isolated muscle preparations were bathed continuously in standard locust saline in a bath of volume 250µl. Twitch tension recordings of the muscle were made to electrical stimulation of its motor innervation supramaximal voltage, frequency 0.1Hz).
The locust isolated retractor unguis nerve-muscle is a preparation with well characterised muscle receptors belonging to the quisqualate-sensitive class (Boden, P. et al., (1986) Brain Res., 385: 205.). This preparation has previously been employed to identify antogonists of excitatory amino acid receptors, (e.g. Bateman, A. et al., (1985) Brain Res., 339: 237 and Budd, T. et al., (1988) Brain Res., 448: 30.).
The potency of this monocylated spermine as an antagonist of the complex formed by the invertebrate L-quisqualate sub-type L-glutamate receptor and its ion channel was assayed using the electrically stimulated retractor unguis muscle of the locust (Schistocerca gregaria). Twitch amplitude was reduced (1% inhibition) from control (100%) levels at the following concentrations: […]

`NCCCNCCCNCCCNC(=O)Cc1ccc(O)cc1` [Example 21, N-(4-Hydroxyphenylacetyl)-N′,N˝-bis(3-aminopropyl)-1,3-propanediamine]: the “Twitch amplitude was reduced from control (100%) levels” value (10⁻⁴M) is “approximately 30%”.
For `NCCCNCCCCNCCCNC(=O)Cc1cccc(O)c1` [Example 2, N-(3-Hydroxyphenylacetyl)-spermine], the inhibition of twitch runs as follows: (3 x 10⁻⁷M) 35%; (3 x 10⁻⁸M) 30%.
Take `NCCCNCCCCNCCCNC(=O)C=Cc1ccc(O)cc1` [Example 6, N-(4-Hydroxycinnamoyl)-spermine]: the “Twitch amplitude was reduced from control (100%) levels” value turned out to be 4% (10⁻¹⁰M); 70% (10⁻⁵M); 56% (10⁻⁶M); 33% (10⁻⁷M); 24% (10⁻⁸M); 18% (10⁻⁹M).
As to `NCCCNCCCNCCCNC(=O)Cc1cccc(O)c1` [Example 20, N-(3-Hydroxyphenylacetyl)-N′,N˝-bis(3-aminopropyl)-1,3-propanediamine], the “Twitch amplitude was reduced from control (100%) levels” value (1.04 x 10⁻⁴M) is “approximately 60%”.
Regarding `NCCCNCCCCNCCCNC(=O)C=Cc1cccc(O)c1` [Example 13, N-(3-Hydroxycinnamoyl)-spermine], the “Twitch amplitude was reduced from control levels” value (9.2 x 10⁻⁷M) is “approximately 25%”.
As for `NCCCNCCCCNCCCNC(=O)CCc1ccc(O)cc1` [Example 22, N-(4-Hydroxyphenylpropanoyl)-spermine], the “Twitch amplitude was reduced from control levels” value runs as follows: (1.45x 10^-5M) 38%; (1.45x 10^-6M) 30%; (2.9 x 10^-5M) 81%; (2.9 x 10^-6M) 38%; (2.9 x 10^-7M) 25%; (2.9 x 10^-8M) 10%. Moreover, the “Twitch amplitude was reduced from control levels” value (7.25x 10^-5M) is given as 100%. Moreover, the IC50 (reduction of twitch amplitude, retractor unguis muscle, read-out: IC₅₀) was found to be 6 µM.
In the case of `NCCCNCCCCNCCCNC(=O)CCc1cccc(O)c1` [Example 5, N(3-Hydroxyphenylpropanoyl)-spermine], the inhibition of twitch is recorded as 15% (1.08 x 10⁻⁶M) and 10% (1.08 x 10⁻⁷M).
Take `NCCCNCCCCNCCCNC(=O)Cc1ccc(O)cc1` [Example 3, N-(4-Hydroxyphenylacetyl)-spermine]: the “Twitch amplitude was reduced from control (100%) levels” value is given as 74% (2.95x 10⁻⁵M); 91% (4.43x 10⁻⁵M); 96% (5.9 x 10⁻⁵M); 25% (5.9 x 10⁻⁶M); 9% (5.9 x 10⁻⁷M).
Consider `NCCCNCCCCNCCCNC(=O)c1ccccc1O` [Example 10], for which the “Twitch amplitude was reduced from control level” value (1.09 x 10⁻⁵M) is “approximately 25%”.
As to `NCCCNCCCCNCCCNC(=O)c1cccc(O)c1` [Example 11, N-(3-Hydroxybenzoyl)-spermine], under “1.02 x 10⁻⁵M”, the “Twitch amplitude was reduced from control levels” value is “approximately 40%”.
As for `NCCCNCCCCNCCCNC(=O)Cc1ccccc1O` [Example 1, N-(2-Hydroxyphenylacetyl)-spermine], the inhibition of twitch runs as follows: (1.5 x 10⁻⁴M) 85%; (1.5 x 10⁻⁵M) 30%; (3 x 10⁻⁴M) 90%; (3 x 10⁻⁵M) 30%; (3 x 10⁻⁶M) 20%; (3 x 10⁻⁷M) 15%. In addition, where the note is “3 x 10⁻⁸M”, the inhibition of twitch is 10% inhibition of twitch.
For `NCCCNCCCCNCCCNC(=O)Cc1cc(O)cc(O)c1` [Example 9, N-(3,5-Dihydroxyphenylacetyl)-spermine], the “Twitch amplitude was reduced from control levels” value is 25% (1 07 x 10⁻⁶M) and 45% (1.07 x 10⁻⁵M).
